Laboratory results taken from patent US7138361B2, “Herbicidal heterocycles” (E. I. du Pont de Nemours and Company, priority 2000, dated 2006).

Experiments:
Assay type in all cases: in vivo
[1] = test system: Surinam grass (Brachiaria decumbens); test: Test B postemergence; settings: 13 to 15 days
Source text: (§1) Seeds selected from barnyardgrass (Echinochloa crus-galli), Surinam grass (Brachiaria decumbens), cocklebur (Xanthium strumarium), corn (Zea mays), crabgrass (Digitaria sanguinalis), giant foxtail (Setaria faberii), lambsquarters (Chenopodium album), morning glory (Ipomoea hederacea), pigweed (Amaranthus retroflexus), rice (Oryza saliva) and velvetleaf (Abutilon theophrasti) were planted and treated preemergence with test chemicals formulated in a non-phytotoxic solvent mixture which included a surfactant.
(§2) At the same time, plants selected from these crop and weed species and also blackgrass (Alopecurus myosuroides), wheat (Triticum aestivum) and wild oat (Avena fatua) were treated with postemergence applications of test chemicals formulated in the same manner. Plants ranged in height from 2 to 18 cm (1- to 4-leaf stage) for postemergence treatments. Plant species in the flooded paddy test consisted of rice (Oryza saliva), smallflower flatsedge (Cyperus difformis), duck salad (Heteranthera limosa) and barnyardgrass (Echinochloa crus-galli) grown to the 2-leaf stage for testing. Treated plants and controls were maintained in a greenhouse for 13 to 15 days, after which time all species were compared to controls and visually evaluated. Plant response ratings, summarized in Table B, are based on a scale of 0 to 100 where 0 is no effect and 100 is complete control. A dash (-) response means no test result.

[2] = test system: barnyardgrass (Echinochloa crus-galli); test: Test B postemergence; settings: 13 to 15 days
Source text: as §1, §2

[3] = test system: blackgrass (Alopecurus myosuroides); test: Test B postemergence; settings: 13 to 15 days
Source text: as §1, §2

corn (Zea mays) [4] = test: Test B postemergence; settings: 13 to 15 days
Source text: as §1, §2

[5] = test system: crabgrass (Digitaria sanguinalis); test: Test B postemergence; settings: 13 to 15 days
Source text: as §1, §2

[6] = test system: giant foxtail (Setaria faberii); test: Test B postemergence; settings: 13 to 15 days
Source text: as §1, §2

[7] = test system: lambsquarters (Chenopodium album); test: Test B postemergence; settings: Rate 500 g/ha, scale 0 to 100, 0 is no effect, 100 is complete control, 13 to 15 days
Source text: as §1, §2

[8] = test system: morning glory (Ipomoea hederacea); test: Test B postemergence; settings: Rate 500 g/ha, scale 0 to 100, 0 is no effect, 100 is complete control, 13 to 15 days
Source text: as §1, §2

[9] = test system: pigweed (Amaranthus retroflexus); test: Test B postemergence; settings: Rate 500 g/ha, scale 0 to 100, 0 is no effect, 100 is complete control, 13 to 15 days
Source text: as §1, §2

[10] = test system: velvetleaf (Abutilon theophrasti); test: Test B postemergence; settings: Rate 500 g/ha, scale 0 to 100, 0 is no effect, 100 is complete control, 13 to 15 days
Source text: as §1, §2

[11] = test system: wheat (Triticum aestivum); test: Test B postemergence; settings: Rate 500 g/ha, scale 0 to 100, 0 is no effect, 100 is complete control, 13 to 15 days
Source text: as §1, §2

wild oat (Avena fatua) = test: Test B postemergence; settings: Rate 500 g/ha, scale 0 to 100, 0 is no effect, 100 is complete control, 13 to 15 days
Source text: as §1, §2

[12] = test system: Surinam grass (Brachiaria decumbens); test: Test B preemergence
Source text: as §1, §2

[13] = test system: barnyardgrass (Echinochloa crus-galli); test: Test B preemergence
Source text: as §1, §2

[14] = test system: cocklebur (Xanthium strumarium); test: Test B preemergence
Source text: as §1, §2

corn (Zea mays) [15] = test: Test B preemergence
Source text: as §1, §2

[16] = test system: crabgrass (Digitaria sanguinalis); test: Test B preemergence
Source text: as §1, §2

[17] = test system: giant foxtail (Setaria faberii); test: Test B preemergence
Source text: as §1, §2

[18] = test system: lambsquarters (Chenopodium album); test: Test B preemergence
Source text: as §1, §2

[19] = test system: morning glory (Ipomoea hederacea); test: Test B preemergence
Source text: as §1, §2

[20] = test system: pigweed (Amaranthus retroflexus); test: Test B preemergence
Source text: as §1, §2

rice (Oryza saliva) [21] = test: Test B preemergence
Source text: as §1, §2

[22] = test system: velvetleaf (Abutilon theophrasti); test: Test B preemergence
Source text: as §1, §2

[23] = test system: barnyardgrass (Echinochloa crus-galli); test: Test C flooded paddy test; settings: for Barnyardgrass plant response rating: Flooded Paddy, scale 0 to 100, 0 no effect, 100 complete control; for Plant response rating, Barnyardgrass: flooded paddy test, scale 0 to 100 (0 no effect, 100 complete control)
Description: (§3) At the same time, plants selected from these crop and weed species and also winter barley (Hordeum vulgare), blackgrass (Alopecurus myosuroides), canary grass (Phalaris minor), chickweed (Stellaria media), downy brome (Bromus tectorum), green foxtail (Setaria viridis), Italian ryegrass (Lolium multiflorum), wheat (Triticum aestivum), wild oat (Avena fatua) and windgrass (Apera spica-venti) were treated with postemergence applications of some of the test chemicals formulated in the same manner. Plants ranged in height from 2 to 18 cm (1- to 4-leaf stage) for postemergence treatments. Plant species in the flooded paddy test consisted of rice (Oryza saliva), smallflower flatsedge (Cyperus difformis), duck salad (Heteranthera limosa) and barnyardgrass (Echinochloa crus-galli) grown to the 2-leaf stage for testing. Treated plants and controls were maintained in a greenhouse for 12 to 14 days, after which time all species were compared to controls and visually evaluated. Plant response ratings, summarized in Table C, are based on a scale of 0 to 100 where 0 is no effect and 100 is complete control. A dash (-) response means no test result.

[24] = test system: duck salad (Heteranthera limosa); test: Test C flooded paddy test; settings: for Ducksalad plant response rating: Flooded Paddy, scale 0 to 100, 0 no effect, 100 complete control; for Plant response rating, Ducksalad: flooded paddy test, scale 0 to 100 (0 no effect, 100 complete control)
Description: as §3

rice (Oryza saliva) [25] = test: Test C flooded paddy test; settings: for Rice plant response rating: Flooded Paddy, scale 0 to 100, 0 no effect, 100 complete control; for Plant response rating, Rice: flooded paddy test, scale 0 to 100 (0 no effect, 100 complete control)
Description: as §3

[26] = test system: smallflower flatsedge (Cyperus difformis); test: Test C flooded paddy test; settings: for Flatsedge plant response rating: Flooded Paddy, scale 0 to 100, 0 no effect, 100 complete control; for Plant response rating, Flatsedge: flooded paddy test, scale 0 to 100 (0 no effect, 100 complete control)
Description: as §3

[27] = Rate 125 g/ha, scale 0 (no effect) to 100 (complete control)
[28] = Rate 500 g/ha, scale 0 to 100, 0 is no effect, 100 is complete control
[29] = Preemergence, Rate 500 g/ha, scale 0 to 100, 0 no effect, 100 complete control
[30] = preemergence, Rate 125 g/ha, scale of 0 to 100 where 0 is no effect and 100 is complete control, 13 to 15 days

Structure (SMILES): CC(C)(C)c1ccn(C2CCN(c3cccc(C#N)c3)C2=O)n1 (stereo not shown) [Compound 104]
- Plant response rating, Surinam grass [1, 27]: 0
- Plant response rating, Surinam grass [1, 28]: 0
- Plant response rating, Barnyardgrass [2, 27]: 0
- Plant response rating, Barnyardgrass [2, 28]: 0
- Plant response rating, Blackgrass [3, 27]: 0
- Plant response rating, Blackgrass [3, 28]: 0
- Plant response rating, Corn (corn (Zea mays) [4]; [27]): 0
- Plant response rating, Corn (corn (Zea mays) [4]; [28]): 0
- Plant response rating, Crabgrass [5, 27]: 0
- Plant response rating, Crabgrass [5, 28]: 0
- Plant response rating, Foxtail, Giant [6, 27]: 0
- Plant response rating, Foxtail, Giant [6, 28]: 0
- Plant response rating, Lambsquarters [7]: 0
- Plant response rating, Morningglory [8]: 0
- Plant response rating, Pigweed [9]: 0
- Plant response rating, Velvetleaf [10]: 0
- Plant response rating, Wheat [11]: 0
- Plant response rating, Wild Oat (wild oat (Avena fatua)): 0
- Plant response rating, Surinam grass [12, 29]: 0
- Plant response rating, Surinam grass [12, 30]: 0
- Plant response rating, Barnyardgrass [13, 29]: 0
- Plant response rating, Barnyardgrass [13, 30]: 0
- Plant response rating, Cocklebur [14, 29]: 0
- Plant response rating, Cocklebur [14, 30]: 0
- Plant response rating, Corn (corn (Zea mays) [15]; [29]): 0
- Plant response rating, Corn (corn (Zea mays) [15]; [30]): 0
- Plant response rating, Crabgrass [16, 29]: 0
- Plant response rating, Crabgrass [16, 30]: 0
- Plant response rating, Foxtail, Giant [17, 29]: 0
- Plant response rating, Foxtail, Giant [17, 30]: 0
- Plant response rating, Lambsquarters [18, 29]: 100
- Plant response rating, Lambsquarters [18, 30]: 100
- Plant response rating, Morningglory [19, 29]: 0
- Plant response rating, Morningglory [19, 30]: 0
- Plant response rating, Pigweed [20, 29]: 100
- Plant response rating, Pigweed [20, 30]: 70
- Plant response rating, Rice (rice (Oryza saliva) [21]; [29]): 0
- Plant response rating, Rice (rice (Oryza saliva) [21]; [30]): 0
- Plant response rating, Velvetleaf [22, 29]: 0
- Plant response rating, Velvetleaf [22, 30]: 0
- Barnyardgrass plant response rating ([23]; Rate 250 g/ha): 0
- Barnyardgrass plant response rating ([23]; Rate 500 g/ha): 0
- Plant response rating, Barnyardgrass ([23]; Rate 62 g/ha): 0
- Plant response rating, Barnyardgrass ([23]; Rate 125 g/ha): 0
- Ducksalad plant response rating ([24]; Rate 250 g/ha): 0
- Ducksalad plant response rating ([24]; Rate 500 g/ha): 0
- Plant response rating, Ducksalad ([24]; Rate 62 g/ha): 0
- Plant response rating, Ducksalad ([24]; Rate 125 g/ha): 0
- Rice plant response rating (rice (Oryza saliva) [25]; Rate 250 g/ha): 0
- Rice plant response rating (rice (Oryza saliva) [25]; Rate 500 g/ha): 0
- Plant response rating, Rice (rice (Oryza saliva) [25]; Rate 62 g/ha): 0
- Plant response rating, Rice (rice (Oryza saliva) [25]; Rate 125 g/ha): 0
- Flatsedge plant response rating ([26]; Rate 250 g/ha): 0
- Flatsedge plant response rating ([26]; Rate 500 g/ha): 0
- Plant response rating, Flatsedge ([26]; Rate 62 g/ha): 0
- Plant response rating, Flatsedge ([26]; Rate 125 g/ha): 0

Structure (SMILES): CC(C)(C)c1ccn(C2CCN(c3ccc4c(c3)CCC4)C2=O)n1 (stereo not shown) [Compound 105]
- Plant response rating, Surinam grass [1, 27]: 0
- Plant response rating, Surinam grass [1, 28]: 0
- Plant response rating, Barnyardgrass [2, 27]: 0
- Plant response rating, Barnyardgrass [2, 28]: 0
- Plant response rating, Blackgrass [3, 27]: 0
- Plant response rating, Blackgrass [3, 28]: 0
- Plant response rating, Corn (corn (Zea mays) [4]; [27]): 0
- Plant response rating, Corn (corn (Zea mays) [4]; [28]): 0
- Plant response rating, Crabgrass [5, 27]: 0
- Plant response rating, Crabgrass [5, 28]: 0
- Plant response rating, Foxtail, Giant [6, 27]: 0
- Plant response rating, Foxtail, Giant [6, 28]: 0
- Plant response rating, Lambsquarters [7]: 0
- Plant response rating, Morningglory [8]: 0
- Plant response rating, Pigweed [9]: 0
- Plant response rating, Velvetleaf [10]: 0
- Plant response rating, Wheat [11]: 0
- Plant response rating, Wild Oat (wild oat (Avena fatua)): 0
- Plant response rating, Surinam grass [12, 29]: 0
- Plant response rating, Surinam grass [12, 30]: 0
- Plant response rating, Barnyardgrass [13, 29]: 0
- Plant response rating, Barnyardgrass [13, 30]: 0
- Plant response rating, Cocklebur [14, 29]: 0
- Plant response rating, Cocklebur [14, 30]: 0
- Plant response rating, Corn (corn (Zea mays) [15]; [29]): 0
- Plant response rating, Corn (corn (Zea mays) [15]; [30]): 0
- Plant response rating, Crabgrass [16, 29]: 30
- Plant response rating, Crabgrass [16, 30]: 0
- Plant response rating, Foxtail, Giant [17, 29]: 20
- Plant response rating, Foxtail, Giant [17, 30]: 0
- Plant response rating, Lambsquarters [18, 29]: 100
- Plant response rating, Lambsquarters [18, 30]: 60
- Plant response rating, Morningglory [19, 29]: 0
- Plant response rating, Morningglory [19, 30]: 0
- Plant response rating, Pigweed [20, 29]: 100
- Plant response rating, Pigweed [20, 30]: 0
- Plant response rating, Rice (rice (Oryza saliva) [21]; [29]): 0
- Plant response rating, Rice (rice (Oryza saliva) [21]; [30]): 0
- Plant response rating, Velvetleaf [22, 29]: 0
- Plant response rating, Velvetleaf [22, 30]: 0
- Barnyardgrass plant response rating ([23]; Rate 250 g/ha): 20
- Barnyardgrass plant response rating ([23]; Rate 500 g/ha): 60
- Plant response rating, Barnyardgrass ([23]; Rate 62 g/ha): 0
- Plant response rating, Barnyardgrass ([23]; Rate 125 g/ha): 0
- Ducksalad plant response rating ([24]; Rate 250 g/ha): 0
- Ducksalad plant response rating ([24]; Rate 500 g/ha): 0
- Plant response rating, Ducksalad ([24]; Rate 62 g/ha): 0
- Plant response rating, Ducksalad ([24]; Rate 125 g/ha): 0
- Rice plant response rating (rice (Oryza saliva) [25]; Rate 250 g/ha): 20
- Rice plant response rating (rice (Oryza saliva) [25]; Rate 500 g/ha): 30
- Plant response rating, Rice (rice (Oryza saliva) [25]; Rate 62 g/ha): 0
- Plant response rating, Rice (rice (Oryza saliva) [25]; Rate 125 g/ha): 0
- Flatsedge plant response rating ([26]; Rate 250 g/ha): 90
- Flatsedge plant response rating ([26]; Rate 500 g/ha): 90
- Plant response rating, Flatsedge ([26]; Rate 62 g/ha): 40
- Plant response rating, Flatsedge ([26]; Rate 125 g/ha): 90
